Laboratory results taken from ChEMBL document CHEMBL5346915, “A practical "preTACs-cytoblot" platform accelerates the streamlined development of PROTAC-based protein degraders” (Eur J Med Chem, 2023).
Calls of active or inactive are those of the source. The calls are words filed in the database; no cut-off is given here.

Columns and labels:
[1] = system: HeLa; experiment: Antiproliferative activity against human HeLa cells assessed as inhibition of cell growth measured after 96 hrs by SRB assay; format: functional, cell-based
[2] = system: MDA-MB-231; experiment: Antiproliferative activity against human MDA-MB-231 cells assessed as inhibition of cell growth measured after 96 hrs by SRB assay; format: functional, cell-based; details: MDA-MB-231, 96 h
[3] = system: Bel-7402; experiment: Antiproliferative activity against human Bel-7402 cells assessed as inhibition of cell growth measured after 96 hrs by SRB assay; format: functional, cell-based; details: Bel-7402, 96 h
[4] = system: HCT-116; experiment: Antiproliferative activity against human HCT-116 cells assessed as inhibition of cell growth measured after 96 hrs by SRB assay; format: functional, cell-based; details: HCT-116, 96 h
[5] = Cytotoxicity against human L02 cells assessed as inhibition of cell growth measured after 96 hrs by SRB assay; format: toxicity, cell-based
[6] = target: T1, von Hippel-Lindau disease tumor suppressor/Cyclin-dependent kinase 12 (Homo sapiens, UniProt P40337+Q9NYV4); experiment: PROTAC activity at VHL/CDK12 in human HeLa cells assessed as induction of CDK12 degradation measured after 24 hrs by fluorescence based cytoblot assay; format: cell-based
T1 sequence (P40337 whole entry): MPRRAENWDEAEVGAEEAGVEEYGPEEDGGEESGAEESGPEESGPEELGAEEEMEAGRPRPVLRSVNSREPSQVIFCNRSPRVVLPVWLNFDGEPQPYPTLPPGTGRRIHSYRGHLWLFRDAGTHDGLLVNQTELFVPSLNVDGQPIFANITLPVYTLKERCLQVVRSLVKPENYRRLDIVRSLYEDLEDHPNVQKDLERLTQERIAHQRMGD
T1 sequence (Q9NYV4 whole entry): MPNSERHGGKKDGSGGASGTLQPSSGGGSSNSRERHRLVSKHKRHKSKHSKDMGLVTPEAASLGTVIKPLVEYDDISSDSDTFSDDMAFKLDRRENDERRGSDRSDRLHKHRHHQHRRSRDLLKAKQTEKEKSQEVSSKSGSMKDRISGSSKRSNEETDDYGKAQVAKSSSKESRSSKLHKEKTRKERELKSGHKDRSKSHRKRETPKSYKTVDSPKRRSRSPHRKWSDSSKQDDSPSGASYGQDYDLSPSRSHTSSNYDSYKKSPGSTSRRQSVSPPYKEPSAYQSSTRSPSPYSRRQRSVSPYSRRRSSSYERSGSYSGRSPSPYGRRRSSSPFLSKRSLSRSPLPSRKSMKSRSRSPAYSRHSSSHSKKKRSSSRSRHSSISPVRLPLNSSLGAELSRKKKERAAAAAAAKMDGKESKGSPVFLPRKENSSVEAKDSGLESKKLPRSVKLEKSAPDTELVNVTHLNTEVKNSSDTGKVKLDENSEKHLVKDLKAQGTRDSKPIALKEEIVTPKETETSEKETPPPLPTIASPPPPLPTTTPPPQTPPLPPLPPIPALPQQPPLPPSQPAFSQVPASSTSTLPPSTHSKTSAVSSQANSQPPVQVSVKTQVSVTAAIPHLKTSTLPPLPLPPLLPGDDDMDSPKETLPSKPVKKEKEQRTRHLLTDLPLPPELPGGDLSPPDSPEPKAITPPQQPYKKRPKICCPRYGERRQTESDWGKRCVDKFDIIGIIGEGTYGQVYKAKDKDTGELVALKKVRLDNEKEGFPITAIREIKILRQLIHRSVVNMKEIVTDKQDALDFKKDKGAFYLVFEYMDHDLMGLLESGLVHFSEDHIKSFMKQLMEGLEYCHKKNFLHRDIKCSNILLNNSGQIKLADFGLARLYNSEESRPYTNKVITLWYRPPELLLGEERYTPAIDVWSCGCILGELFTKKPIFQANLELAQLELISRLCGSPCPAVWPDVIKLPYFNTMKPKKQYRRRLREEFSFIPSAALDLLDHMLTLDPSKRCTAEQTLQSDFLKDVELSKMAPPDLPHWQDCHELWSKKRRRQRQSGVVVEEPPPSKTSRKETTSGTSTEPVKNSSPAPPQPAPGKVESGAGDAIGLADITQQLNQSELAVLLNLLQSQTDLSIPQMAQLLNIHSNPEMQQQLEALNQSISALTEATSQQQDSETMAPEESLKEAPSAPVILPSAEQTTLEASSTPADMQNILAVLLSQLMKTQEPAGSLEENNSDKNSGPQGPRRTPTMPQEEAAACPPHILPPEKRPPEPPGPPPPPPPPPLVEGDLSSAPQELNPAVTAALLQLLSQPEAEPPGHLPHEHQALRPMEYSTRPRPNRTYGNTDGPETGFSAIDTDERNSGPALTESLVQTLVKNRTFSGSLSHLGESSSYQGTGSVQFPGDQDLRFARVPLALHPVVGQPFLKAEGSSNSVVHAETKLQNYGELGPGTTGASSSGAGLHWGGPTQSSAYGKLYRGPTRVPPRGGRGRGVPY

[7] = target: T1, von Hippel-Lindau disease tumor suppressor/Cyclin-dependent kinase 12; experiment: PROTAC activity at VHL/CDK12 in human HeLa cells assessed as induction of CDK12 degradation measured after 24 hrs by Western blotting analysis; format: cell-based
[8] = target: Protein cereblon/Cyclin-dependent kinase 12 (Homo sapiens) (UniProt Q9NYV4+Q96SW2); experiment: PROTAC activity at CRBN/CDK12 in human HeLa cells assessed as induction of CDK12 degradation measured after 24 hrs by fluorescence based cytoblot assay; format: cell-based
Sequence of Protein cereblon/Cyclin-dependent kinase 12 (Homo sapiens) (Q96SW2 whole entry, looked up): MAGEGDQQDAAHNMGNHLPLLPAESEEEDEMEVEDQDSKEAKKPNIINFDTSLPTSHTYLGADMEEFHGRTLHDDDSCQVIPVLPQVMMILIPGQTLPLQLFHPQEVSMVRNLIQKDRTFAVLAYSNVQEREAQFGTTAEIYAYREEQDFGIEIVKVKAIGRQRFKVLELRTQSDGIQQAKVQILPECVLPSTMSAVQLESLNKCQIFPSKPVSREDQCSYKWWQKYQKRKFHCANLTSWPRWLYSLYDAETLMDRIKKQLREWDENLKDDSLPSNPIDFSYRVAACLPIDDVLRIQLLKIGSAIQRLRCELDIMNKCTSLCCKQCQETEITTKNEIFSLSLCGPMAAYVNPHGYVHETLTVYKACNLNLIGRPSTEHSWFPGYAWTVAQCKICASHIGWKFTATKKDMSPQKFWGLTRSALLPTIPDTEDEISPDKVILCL
Sequence of Protein cereblon/Cyclin-dependent kinase 12 (Homo sapiens) (Q9NYV4 whole entry, looked up): as the sequence (Q9NYV4 whole entry) above

[9] = system: MDA-MB-231; experiment: Synergistic antiproliferative activity against human MDA-MB-231 cells assessed as combination index at 500 nM incubated for 14 days in presence of olaparib by sulforhodamine B staining based Chou-Talalay method; format: functional; details: time 14 day

Row | SMILES | IC50 [1] | IC50 [2] | IC50 [3] | IC50 [4] | IC50 at 96 h [5] | DC50 [6] | DC50 [7] | Activity [8] | CI [9]
1 | CN(C)C/C=C/C(=O)Nc1ccc(C(=O)N2CCC[C@@H](Nc3ncc(Cl)c(-c4c[nH]c5ccccc45)n3)C2)cc1 | 0.106 µM | 0.133 µM | 0.65 µM | 0.089 µM | 0.119 µM |  |  |  | 
2 | CC(C)S(=O)(=O)c1ccccc1Nc1nc(N[C@@H]2CCCN(CCCCCCCNC(=O)COc3cccc4c3C(=O)N(C3CCC(=O)NC3=O)C4=O)C2)ncc1Cl (some centres not stated) |  |  |  |  |  | 0.057 µM | 0.083 µM |  | 
3 | CC(C)S(=O)(=O)c1ccccc1Nc1nc(N[C@@H]2CCCN(CCCCc3cn(CCCCCCCOc4ccc5c(c4)C(=O)N(C4CCC(=O)NC4=O)C5=O)nn3)C2)ncc1Cl (some centres not stated) |  |  |  |  |  |  |  | Active | 
4 | CC(C)S(=O)(=O)c1ccccc1Nc1nc(N[C@@H]2CCCN(CCCCc3cn(CCCCCCCOc4cccc5c4C(=O)N(C4CCC(=O)NC4=O)C5=O)nn3)C2)ncc1Cl (some centres not stated) |  |  |  |  |  |  |  | Active | 
5 | Cc1ncsc1-c1ccc([C@H](C)NC(=O)[C@@H]2C[C@@H](O)CN2C(=O)[C@@H](NC(=O)CCCCCCNC(=O)CN2CCC[C@@H](Nc3ncc(Cl)c(Nc4ccccc4S(=O)(=O)C(C)C)n3)C2)C(C)(C)C)cc1 | 0.316 µM | 0.468 µM | 0.491 µM | 0.665 µM | > 1 µM | 0.074 µM | 0.085 µM |  | 0.17
